The text below walks through data of patent US20260092070A1, “INHIBITORS OF CANINE JANUS KINASE AND USES THEREOF” (ANIMOL DISCOVERY, INC., priority 2023, published 2026).

In experiment [1] the target is Human JAK-2 (Homo sapiens, UniProt O60674). Kind of experiment: JAK enzymatic assay (Eurofins KinaseProfiler/IC50Profiler, radiometric), JAK-2. The experiment is classed as biochemical. Particulars: human JAK-2 enzyme, 9 concentrations; read-out: JAK2 affinity (IC50) category.
Description: (§1) All enzyme assays were conducted according to Eurofins Discovery's KinaseProfiler™ and IC50Profiler™ services.
(SEQ ID NO: 2) peptide substrate, 10 mM magnesium acetate and [gamma-33P]-ATP (specific activity and concentration as required). The reaction was initiated by the addition of the Mg/ATP mix. After incubation for 40 minutes at room temperature, the reaction was stopped by the addition of phosphoric acid to a concentration of 0.5%. An aliquot of the reaction was then spotted onto a filter and washed four times for 4 minutes in 0.425% phosphoric acid and once with methanol prior to drying and scintillation counting.
(§2) Data was then imported into an internal application where each data point was expressed as % inhibition based on uninhibited and no enzyme controls.
The target of experiment [2] is T1, Human JAK-3 (Homo sapiens, UniProt P52333).
T1 construct: purchased Eurofins Discovery (KinaseProfiler / IC50Profiler service)
T1 sequence (P52333 1-1124): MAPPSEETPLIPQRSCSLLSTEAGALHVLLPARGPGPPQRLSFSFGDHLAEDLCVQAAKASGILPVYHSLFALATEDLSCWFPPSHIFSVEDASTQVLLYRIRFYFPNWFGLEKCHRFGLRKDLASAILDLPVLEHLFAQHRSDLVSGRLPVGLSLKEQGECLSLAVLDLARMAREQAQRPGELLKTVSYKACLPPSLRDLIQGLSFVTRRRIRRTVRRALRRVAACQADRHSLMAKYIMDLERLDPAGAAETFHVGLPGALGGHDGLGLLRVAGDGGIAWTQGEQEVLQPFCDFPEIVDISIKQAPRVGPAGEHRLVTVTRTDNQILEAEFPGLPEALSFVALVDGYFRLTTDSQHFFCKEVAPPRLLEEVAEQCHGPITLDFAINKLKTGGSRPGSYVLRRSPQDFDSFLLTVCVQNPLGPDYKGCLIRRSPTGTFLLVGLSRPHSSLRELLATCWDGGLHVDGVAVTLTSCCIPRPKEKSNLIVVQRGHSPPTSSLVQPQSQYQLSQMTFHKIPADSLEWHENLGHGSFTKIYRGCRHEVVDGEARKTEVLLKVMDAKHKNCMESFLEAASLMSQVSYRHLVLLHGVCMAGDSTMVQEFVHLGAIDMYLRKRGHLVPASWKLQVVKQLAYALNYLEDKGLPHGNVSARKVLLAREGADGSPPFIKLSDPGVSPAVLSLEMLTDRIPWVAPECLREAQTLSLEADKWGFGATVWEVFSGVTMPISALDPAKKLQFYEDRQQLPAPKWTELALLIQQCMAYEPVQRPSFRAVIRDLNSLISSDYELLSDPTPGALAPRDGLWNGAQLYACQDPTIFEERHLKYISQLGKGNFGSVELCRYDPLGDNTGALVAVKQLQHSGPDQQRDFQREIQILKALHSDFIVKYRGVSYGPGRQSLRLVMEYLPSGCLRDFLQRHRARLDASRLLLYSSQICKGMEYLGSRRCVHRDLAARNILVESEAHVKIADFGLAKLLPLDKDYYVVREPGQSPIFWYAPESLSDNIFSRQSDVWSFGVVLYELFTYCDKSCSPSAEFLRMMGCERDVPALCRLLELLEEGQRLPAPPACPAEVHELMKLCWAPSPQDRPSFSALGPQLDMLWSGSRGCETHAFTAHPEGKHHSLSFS
Kind of experiment: JAK enzymatic assay (Eurofins KinaseProfiler/IC50Profiler, radiometric), JAK-3. The format is biochemical. Particulars: human JAK-3 enzyme, 9 concentrations; read-out: JAK3 affinity (IC50) category.
Description: as §1
(SEQ ID NO: 3) peptide substrate, 10 mM magnesium acetate and [gamma-33P]-ATP (specific activity and concentration as required). The reaction was initiated by the addition of the Mg/ATP mix. After incubation for 40 minutes at room temperature, the reaction was stopped by the addition of phosphoric acid to a concentration of 0.5%. An aliquot of the reaction was then spotted onto a filter and washed four times for 4 minutes in 0.425% phosphoric acid and once with methanol prior to drying and scintillation counting.
as §2

For experiment [3], the target named is T2, Human TYK-2 (Homo sapiens, UniProt P29597).
T2 construct: purchased Eurofins Discovery (KinaseProfiler / IC50Profiler service)
T2 sequence (P29597 whole entry): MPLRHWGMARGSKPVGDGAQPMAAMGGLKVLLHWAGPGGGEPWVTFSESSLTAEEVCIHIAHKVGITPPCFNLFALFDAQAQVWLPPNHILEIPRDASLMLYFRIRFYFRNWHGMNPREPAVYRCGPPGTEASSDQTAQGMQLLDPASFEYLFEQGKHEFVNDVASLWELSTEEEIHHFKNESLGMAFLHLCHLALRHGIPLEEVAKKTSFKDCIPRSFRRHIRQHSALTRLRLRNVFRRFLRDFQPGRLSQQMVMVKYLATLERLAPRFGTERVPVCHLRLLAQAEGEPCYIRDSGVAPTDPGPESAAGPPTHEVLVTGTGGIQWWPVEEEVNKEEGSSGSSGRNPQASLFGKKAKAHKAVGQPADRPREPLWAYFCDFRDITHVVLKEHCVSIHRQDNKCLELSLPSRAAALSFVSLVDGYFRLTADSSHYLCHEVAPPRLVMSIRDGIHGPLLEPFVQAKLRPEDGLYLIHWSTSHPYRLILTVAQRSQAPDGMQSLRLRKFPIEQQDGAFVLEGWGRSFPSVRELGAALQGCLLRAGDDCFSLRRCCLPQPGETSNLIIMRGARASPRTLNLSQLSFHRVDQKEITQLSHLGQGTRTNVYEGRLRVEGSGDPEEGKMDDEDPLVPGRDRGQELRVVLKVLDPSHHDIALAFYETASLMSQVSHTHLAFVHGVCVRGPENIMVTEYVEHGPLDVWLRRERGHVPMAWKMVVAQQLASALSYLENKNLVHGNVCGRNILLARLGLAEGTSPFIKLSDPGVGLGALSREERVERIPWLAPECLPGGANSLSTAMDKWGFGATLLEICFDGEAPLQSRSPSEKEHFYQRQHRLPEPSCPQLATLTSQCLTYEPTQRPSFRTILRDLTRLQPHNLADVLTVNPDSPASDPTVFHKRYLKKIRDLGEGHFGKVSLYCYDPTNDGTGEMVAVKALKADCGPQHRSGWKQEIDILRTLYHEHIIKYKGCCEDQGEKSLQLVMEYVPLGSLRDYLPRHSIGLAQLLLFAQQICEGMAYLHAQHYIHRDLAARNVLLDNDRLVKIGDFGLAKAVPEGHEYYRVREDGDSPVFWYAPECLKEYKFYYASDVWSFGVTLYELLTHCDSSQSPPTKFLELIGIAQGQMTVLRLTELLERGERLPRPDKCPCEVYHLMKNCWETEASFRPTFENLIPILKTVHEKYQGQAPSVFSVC
The experiment in a line: JAK enzymatic assay (Eurofins KinaseProfiler/IC50Profiler, radiometric), TYK-2. The experiment is classed as biochemical. Particulars: human TYK-2 enzyme, 9 concentrations; read-out: TYK2 affinity (IC50) category. Here is the method: Human TYK-2 (Uniprot ID: P29597) was incubated with 8 mM MOPS pH 7.0, 0.2 mM EDTA, 250 μM […]

The target of experiment [4] is JAK-1 (Homo sapiens, UniProt P23458). Kind of experiment: JAK enzymatic assay (Eurofins KinaseProfiler/IC50Profiler, radiometric), JAK-1. To be noted: for JAK1/JAK2 selectivity: selectivity IC50 ratio for JAK1 versus JAK2, human enzymes.
Chain of JAK-1 (P23458 whole entry): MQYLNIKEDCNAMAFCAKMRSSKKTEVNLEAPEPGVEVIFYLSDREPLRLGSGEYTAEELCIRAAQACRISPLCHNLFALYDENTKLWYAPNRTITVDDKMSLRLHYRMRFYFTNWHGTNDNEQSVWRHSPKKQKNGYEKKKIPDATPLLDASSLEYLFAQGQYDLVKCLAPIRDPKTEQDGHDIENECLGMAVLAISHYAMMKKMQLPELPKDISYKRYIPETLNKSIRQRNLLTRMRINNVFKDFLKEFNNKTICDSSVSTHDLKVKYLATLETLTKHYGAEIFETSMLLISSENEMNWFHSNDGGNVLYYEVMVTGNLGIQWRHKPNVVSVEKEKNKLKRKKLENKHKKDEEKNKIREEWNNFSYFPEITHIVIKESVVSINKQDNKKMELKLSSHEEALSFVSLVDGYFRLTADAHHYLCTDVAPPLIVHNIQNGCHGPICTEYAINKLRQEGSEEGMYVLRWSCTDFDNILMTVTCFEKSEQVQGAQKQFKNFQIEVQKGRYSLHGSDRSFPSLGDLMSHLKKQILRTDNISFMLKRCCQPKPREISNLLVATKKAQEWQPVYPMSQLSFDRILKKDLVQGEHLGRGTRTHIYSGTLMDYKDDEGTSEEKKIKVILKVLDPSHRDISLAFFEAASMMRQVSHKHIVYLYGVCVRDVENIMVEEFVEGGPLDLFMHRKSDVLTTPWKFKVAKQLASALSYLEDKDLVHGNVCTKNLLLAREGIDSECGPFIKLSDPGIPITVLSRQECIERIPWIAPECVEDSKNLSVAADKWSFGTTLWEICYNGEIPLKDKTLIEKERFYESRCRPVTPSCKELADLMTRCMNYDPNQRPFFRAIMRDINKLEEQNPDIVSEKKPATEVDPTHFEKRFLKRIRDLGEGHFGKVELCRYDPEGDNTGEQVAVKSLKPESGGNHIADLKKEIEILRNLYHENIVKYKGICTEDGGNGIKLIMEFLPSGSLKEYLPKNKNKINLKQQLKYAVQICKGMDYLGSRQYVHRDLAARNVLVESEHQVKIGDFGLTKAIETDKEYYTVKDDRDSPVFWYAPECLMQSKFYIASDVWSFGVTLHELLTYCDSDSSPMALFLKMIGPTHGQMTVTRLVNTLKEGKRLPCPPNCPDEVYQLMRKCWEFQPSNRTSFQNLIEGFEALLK
Description: as §1
(SEQ ID NO.: 1) peptide substrate, 10 mM magnesium acetate and [gamma-33P]-ATP (specific activity and concentration as required). The reaction was initiated by the addition of the Mg/ATP mix. After incubation for 40 minutes at room temperature, the reaction was stopped by the addition of phosphoric acid to a concentration of 0.5%. An aliquot of the reaction was then spotted onto a filter and washed four times for 4 minutes in 0.425% phosphoric acid and once with methanol prior to drying and scintillation counting. A known inhibitor, Staurosporine, was used as a positive control for the assay.
Data was then imported into an internal application where each data point was expressed as % inhibition based on uninhibited and no enzyme controls. […] Inhibition values for the JAK enzymes (IC50 values) for each compound were stratified into four groups.

Chain of Human JAK-2 (O60674 whole entry): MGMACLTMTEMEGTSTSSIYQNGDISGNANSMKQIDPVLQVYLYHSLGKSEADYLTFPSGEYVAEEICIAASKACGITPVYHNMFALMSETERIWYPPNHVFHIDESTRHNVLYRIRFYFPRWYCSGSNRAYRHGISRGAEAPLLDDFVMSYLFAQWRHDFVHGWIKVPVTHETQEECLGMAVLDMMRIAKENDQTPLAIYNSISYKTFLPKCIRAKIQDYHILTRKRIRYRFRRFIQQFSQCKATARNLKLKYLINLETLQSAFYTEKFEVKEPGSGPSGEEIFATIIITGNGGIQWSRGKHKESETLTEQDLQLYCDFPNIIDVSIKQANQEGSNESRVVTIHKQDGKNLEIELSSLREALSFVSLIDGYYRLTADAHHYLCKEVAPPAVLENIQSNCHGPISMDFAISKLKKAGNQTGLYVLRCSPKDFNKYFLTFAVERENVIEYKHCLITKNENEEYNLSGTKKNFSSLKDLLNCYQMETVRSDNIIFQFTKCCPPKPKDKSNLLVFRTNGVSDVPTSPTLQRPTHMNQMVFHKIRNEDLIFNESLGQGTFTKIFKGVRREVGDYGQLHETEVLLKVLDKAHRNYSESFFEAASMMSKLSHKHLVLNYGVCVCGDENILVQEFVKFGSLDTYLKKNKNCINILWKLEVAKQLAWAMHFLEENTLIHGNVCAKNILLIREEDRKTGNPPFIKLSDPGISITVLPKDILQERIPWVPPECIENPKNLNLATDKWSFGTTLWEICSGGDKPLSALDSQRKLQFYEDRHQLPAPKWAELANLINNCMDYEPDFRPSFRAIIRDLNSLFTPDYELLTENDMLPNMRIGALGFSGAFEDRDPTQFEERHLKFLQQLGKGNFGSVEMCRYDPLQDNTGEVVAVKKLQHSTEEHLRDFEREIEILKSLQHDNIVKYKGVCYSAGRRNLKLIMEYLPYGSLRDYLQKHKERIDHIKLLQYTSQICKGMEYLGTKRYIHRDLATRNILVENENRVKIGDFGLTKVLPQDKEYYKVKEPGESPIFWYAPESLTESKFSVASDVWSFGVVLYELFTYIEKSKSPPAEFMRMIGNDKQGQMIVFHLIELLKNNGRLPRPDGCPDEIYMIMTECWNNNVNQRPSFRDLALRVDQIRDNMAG

For the compound `COc1cc(NC(=O)CN2CCN(c3ncnc4[nH]ccc34)CC2)ccc1S(=O)(=O)N(C)C` [Compound 1, 2-(4-(7H-pyrrolo[2,3-d]pyrimidin-4-yl)piperazin-1-yl)-N-(4-(N, N-dimethylsulfamoyl)-3-methoxyphenyl) acetamide], the 50% inhibitory concentration (IC50) is above 1000 nM in experiment [1], above 1000 nM in experiment [2], above 1000 nM in experiment [3] and 500 to 1000 nM in experiment [4].
`CC(C)(C)NS(=O)(=O)c1ccc(NC(=O)CN2CCN(c3ncnc4[nH]ccc34)CC2)cc1` [Compound 2, 2-(4-(7H-pyrrolo[2,3-d]pyrimidin-4-yl)piperazin-1-yl)-N-(4-(N-(tert-butyl)sulfamoyl)phenyl)acetamide]: the half-maximal inhibitory concentration (IC50) was above 1000 nM in experiment [1], above 1000 nM in experiment [2], above 1000 nM in experiment [3] and below 250 nM in experiment [4]. The JAK1/JAK2 selectivity in experiment [4] is recorded as 25.
In the case of `O=C(CN1CCN(c2ncnc3[nH]ccc23)CC1)Nc1ccc(S(=O)(=O)N2CCC2)cc1` [Compound 4, 2-(4-(7H-pyrrolo[2,3-d]pyrimidin-4-yl)piperazin-1-yl)-N-(4-(azetidin-1-ylsulfonyl)phenyl) acetamide], the IC50 in experiment [1] was above 1000 nM; in experiment [2] it was above 1000 nM; in experiment [3] it was above 1000 nM; in experiment [4], 250 to 500 nM. Also, in experiment [4], the JAK1/JAK2 selectivity was 24.
Turning to `CN(C)S(=O)(=O)c1ccc(NC(=O)CN2CCN(c3ncnc4[nH]ccc34)CC2)cc1F` [Compound 5, 2-(4-(7H-pyrrolo[2,3-d]pyrimidin-4-yl)piperazin-1-yl)-N-(4-(N,N-dimethylsulfamoyl)-3-fluorophenyl)acetamide], the 50% inhibitory concentration (IC50) in experiment [1] was above 1000 nM; in experiment [2], above 1000 nM; in experiment [3], above 1000 nM; in experiment [4] it was 250 to 500 nM.
`CN(C)S(=O)(=O)c1ccc(NC(=O)CN2CCN(c3ncnc4[nH]ccc34)CC2)cc1Cl` [Compound 6, 2-(4-(7H-pyrrolo[2,3-d]pyrimidin-4-yl)piperazin-1-yl)-N-(3-chloro-4-(N,N-dimethylsulfamoyl)phenyl)acetamide]: the half-maximal inhibitory concentration (IC50) in experiment [1], in experiment [2] and in experiment [3] was above 1000 nM each time.
In the case of `O=C(CN1CCN(c2ncnc3[nH]ccc23)CC1)Nc1ccc(S(=O)(=O)NC2CC2)cc1` [Compound 7, 2-(4-(7H-pyrrolo[2,3-d]pyrimidin-4-yl)piperazin-1-yl)-N-(4-(N-cyclopropylsulfamoyl)phenyl)acetamide], the 50% inhibitory concentration (IC50) in experiment [1] is 500 to 1000 nM; in experiment [2], above 1000 nM; in experiment [3], above 1000 nM; in experiment [4], below 250 nM. In addition, the JAK1/JAK2 selectivity in experiment [4] was 13.
For `CNS(=O)(=O)c1ccc(NC(=O)CN2CCN(c3ncnc4[nH]ccc34)CC2)cc1` [Compound 8, 2-(4-(7H-pyrrolo[2,3-d]pyrimidin-4-yl)piperazin-1-yl)-N-(4-(N-methylsulfamoyl)phenyl)acetamide], the IC50 in experiment [1] is 500 to 1000 nM; in experiment [2], 500 to 1000 nM; in experiment [3] it was above 1000 nM; in experiment [4], below 250 nM. The JAK1/JAK2 selectivity in experiment [4] worked out at 7.
As to `CNS(=O)(=O)c1ccc(NC(=O)CN2CCN(c3ncnc4[nH]ccc34)CC2)cc1F` [Compound 9, 2-(4-(7H-pyrrolo[2,3-d]pyrimidin-4-yl)piperazin-1-yl)-N-(3-fluoro-4-(N-methylsulfamoyl)phenyl)acetamide], the half-maximal inhibitory concentration (IC50) is 500 to 1000 nM in experiment [1], 500 to 1000 nM in experiment [2], 500 to 1000 nM in experiment [3] and below 250 nM in experiment [4]. The JAK1/JAK2 selectivity in experiment [4] is reported as 12.
Consider `COCCN(C)S(=O)(=O)c1ccc(NC(=O)CN2CCN(c3ncnc4[nH]ccc34)CC2)cc1` [Compound 10, 2-(4-(7H-pyrrolo[2,3-d]pyrimidin-4-yl)piperazin-1-yl)-N-(4-(N-(2-methoxyethyl)-N-methylsulfamoyl)phenyl)acetamide], for which the half-inhibitory concentration (IC50) in experiment [1] was above 1000 nM; in experiment [2], above 1000 nM; in experiment [3], above 1000 nM; in experiment [4], 250 to 500 nM. Further, the JAK1/JAK2 selectivity in experiment [4] came to 15.
Regarding `CC(C)NS(=O)(=O)c1ccc(NC(=O)[C@H](C)N2CCN(c3ncnc4[nH]ccc34)CC2)cc1` [Compound 19, (S)-2-(4-(7H-pyrrolo[2,3-d]pyrimidin-4-yl)piperazin-1-yl)-N-(4-(N-isopropylsulfamoyl)phenyl)propenamide], the 50% inhibitory concentration (IC50) in experiment [1] is above 1000 nM; in experiment [2] it was above 1000 nM; in experiment [4], below 250 nM. In addition, in experiment [4], the JAK1/JAK2 selectivity is listed as 8.
In the case of `O=C(CN1CCN(c2nc[nH]c3nccc2-3)CC1)Nc1cccc(S(=O)(=O)N2CCCC2)c1` [Compound 32, N-[3-(pyrrolidine-1-sulfonyl)phenyl]-2-(4-{1H-pyrrolo[2,3-d]pyrimidin-4-yl}piperazin-1-yl)acetamide], in experiment [1], the 50% inhibitory concentration (IC50) was above 1000 nM. Besides, in experiment [4], the IC50 was in the range of 250 to 500 nM and the JAK1/JAK2 selectivity is on record as 23.
In the case of `O=C(CN1CCN(c2nc[nH]c3nccc2-3)CC1)Nc1ccc(/N=N/c2ccccc2)cc1` [Compound 33, N-[4-(2-phenyldiazen-1-yl)phenyl]-2-(4-{1H-pyrrolo[2,3-d]pyrimidin-4-yl}piperazin-1-yl)acetamide], the 50% inhibitory concentration (IC50) in experiment [1] was above 1000 nM. In experiment [4], the half-inhibitory concentration (IC50) was below 250 nM and the JAK1/JAK2 selectivity is above 100.
On to `CN(C)S(=O)(=O)c1cc(NC(=O)CN2CCN(c3nc[nH]c4nccc3-4)CC2)ccc1Cl` [Compound 34, N-[4-chloro-3-(dimethylsulfamoyl)phenyl]-2-(4-{1H-pyrrolo[2,3-d]pyrimidin-4-yl}piperazin-1-yl)acetamide], for which the IC50 in experiment [1] is above 1000 nM. In addition, in experiment [4], the half-maximal inhibitory concentration (IC50) was 250 to 500 nM and the JAK1/JAK2 selectivity turned out to be 23.
Consider `Cc1ccc(NC(=O)CN2CCN(c3nc[nH]c4nccc3-4)CC2)cc1S(=O)(=O)N(C)C` [Compound 35, N-[3-(dimethylsulfamoyl)-4-methylphenyl]-2-(4-{1H-pyrrolo[2,3-d]pyrimidin-4-yl}piperazin-1-yl)acetamide], for which the concentration for half-maximal inhibition (IC50) in experiment [1] was above 1000 nM. For the same compound, in experiment [4], the half-maximal inhibitory concentration (IC50) fell in the range of 500 to 1000 nM and the JAK1/JAK2 selectivity is listed as 11.
Take `CC(C(=O)Nc1cccc(S(=O)(=O)N(C)C)c1)N1CCN(c2nc[nH]c3nccc2-3)CC1` (stereo not drawn) [Compound 36]: the IC50 in experiment [1] was above 1000 nM. Also, in experiment [4], the IC50 is above 1000 nM and the JAK1/JAK2 selectivity is reported as 9.
For `CC(C)N(C)S(=O)(=O)c1ccc(NC(=O)CN2CCN(c3nc[nH]c4nccc3-4)CC2)cc1` [Compound 37, N-{4-[methyl(propan-2-yl)sulfamoyl]phenyl}-2-(4-{1H-pyrrolo[2,3-d]pyrimidin-4-yl}piperazin-1-yl)acetamide], the values for the half-maximal inhibitory concentration (IC50) in experiment [1] and in experiment [4] were above 1000 nM and 250 to 500 nM, respectively. Also, the JAK1/JAK2 selectivity in experiment [4] came out at 15.
The corresponding values for `NS(=O)(=O)c1cccc(NC(=O)CCN2CCN(c3nc[nH]c4nccc3-4)CC2)c1` [Compound 38] are above 1000 nM, 500 to 1000 nM and 6.
As for `O=C(CCN1CCN(c2nc[nH]c3nccc2-3)CC1)Nc1cccc(S(=O)(=O)N2CCCC2)c1` [Compound 39], the IC50 in experiment [1] was above 1000 nM. Also, in experiment [4], the half-maximal inhibitory concentration (IC50) is 500 to 1000 nM and the JAK1/JAK2 selectivity turned out to be 1.
As to `CN(C)S(=O)(=O)c1ccc(NC(=O)CCN2CCN(c3nc[nH]c4nccc3-4)CC2)cc1` [Compound 40], the IC50 in experiment [1] is above 1000 nM; in experiment [4], 250 to 500 nM. Moreover, the JAK1/JAK2 selectivity in experiment [4] is recorded as 11.
As for `CN(C)S(=O)(=O)c1ccccc1CNC(=O)CN1CCN(c2nc[nH]c3nccc2-3)CC1` [Compound 41, N-{[2-(dimethylsulfamoyl)phenyl]methyl}-2-(4-{1H-pyrrolo[2,3-d]pyrimidin-4-yl}piperazin-1-yl)acetamide], the concentration for half-maximal inhibition (IC50) in experiment [1] is above 1000 nM. Besides, in experiment [4], the IC50 was in the range of 500 to 1000 nM and the JAK1/JAK2 selectivity stood at 10.
